The numbers were not newly measured in US5017369A, “Film-forming teat sealer for prevention of mastitis and use thereof” (priority 1989, dated 1991), which cites them from elsewhere.

For this series the following is noted: gluconate salt dissolved in water.

On to `N=C(NCCCCCCNC(=N)NC(=N)Nc1ccc(Cl)cc1)NC(=N)Nc1ccc(Cl)cc1` [chlorhexidine gluconate, bis(p-chlorophenyl-diguanido)hexane], for which the “pH of water solutions” value is listed as around 7.0.
